Assay [1] deals with E. coli DNA gyrase GyrA mutant EcS83L (Escherichia coli, UniProt P0AES4+P0AES6, S83L). The experiment in a line: Supercoiling inhibition assay, GyrA EcS83L mutant gyrase. As to conditions: for Resistance of EcS83L mutant enzyme in supercoiling inhibition: EcS83L compared to wt. The format is biochemical. The procedure:
(§1) Supercoiling reactions were carried out as described previously ([24]) with minor adjustments. A total of 500 ng of relaxed pBR322 plasmid was used as a substrate for each 30 μl reaction. The amount of DNA gyrase (A2B2) added was normalized by testing various dilutions of the stock (A2B2 containing 0.5 mg/ml of each subunit) without compound. The amount sufficient to supercoil 50% of the substrate was then used for the testing of compounds. See Supplementary Figure S1 for details. This ensured a limiting amount of enzyme for every mutant tested. The individual gyrase subunits were either prepared in the lab as described previously ([25]) or purchased from Inspiralis.
(§2) The activity of tricyclic and bicyclic IPYs (Figure 1) was tested in a supercoiling inhibition assay (Table 1) on wild-type (wt) E. coli DNA gyrase and GyrA mutants EcS83L (SaS84), EcD87A (SaE88) and EcD82N (SaD83). These residues are located in the ‘Quinolone-Resistance-Determining-Region’, frequently found mutated in resistant clinical isolates ([18],[35–38]). Based on the structures solved of FQs bound to DNA gyrase and topo IV, it has been established that both residues EcS83 and EcD87 are involved in a water–metal–ion bridge that is important for the stabilization of the ternary complex, explaining the resistance to FQs observed when these residues are mutated ([15–16],[23],[29],[39]).

Assay [2] concerns the target T1, wild-type E. coli DNA gyrase (Escherichia coli, UniProt P0AES4+P0AES6). The assay can be described thus: biochemical. As to conditions: relaxed pBR322 substrate, read-out: Supercoiling IC50. The procedure:
as §1

Assay [3] addresses E. coli DNA gyrase GyrA mutant EcD87A (Escherichia coli, UniProt P0AES4+P0AES6, D87A). The assay can be described thus: Supercoiling inhibition assay, GyrA EcD87A mutant gyrase. The format is biochemical. How it is done:
as §1, §2

Assay [4] addresses T1, wild-type E. coli DNA gyrase. It is filed as biochemical. As to conditions: purified E. coli DNA gyrase, linear plasmid DNA. The procedure:
(§3) A total of 500 ng of relaxed pBR322 plasmid was used as a substrate for each 30 μl reaction.

In assay [5] the target is E. coli DNA gyrase GyrA mutant EcD82N (Escherichia coli, UniProt P0AES4+P0AES6, D82N). The assay can be described thus: Supercoiling inhibition assay, GyrA EcD82N mutant gyrase. It is filed as biochemical. The procedure:
as §1, §2

The target of assay [6] is T2, Escherichia coli wt gyrase (Escherichia coli, UniProt P0AES4+P0AES6). It is filed as biochemical. As to conditions: 8 mM EDTA, no ATP; disappearance of linear double-strand cleavage. How it is done: as §3
Figure 6.

For assay [7], the target named is T2, Escherichia coli wt gyrase. The format is biochemical. As to conditions: 25°C, presence vs absence of ATP.
Experimental: The reactions were carried out either in the presence or absence of ATP for both compounds.
The top panels show the results of cleavage assays with various times allowed for the formation of the cleavage complexes as indicated. The experiment was performed in the presence and the absence of ATP as indicated. […] Approximately 400 ng of A2B2Escherichia coli wt gyrase was used in each assay.
The test system of the next assay is ΔTolC E. coli. Details: method as in Jeannot et al. In revision in J Med Chem. As to conditions: ref Jeannot et al. In revision in J Med Chem; cited from earlier work.

Each structure is given as a SMILES string. pIC50: −log10 of the molar value.

As to `O=C(Cc1ccccc1)Nc1ccc(-c2cn(-c3ccc(O)cc3)c(=O)c3nccn23)cc1` [b1, N-{4-[7-(4-hydroxyphenyl)-8-oxo-7,8-dihydroimidazo[1,2-a]pyrazin-5-yl]phenyl}-2-phenylacetamide], in assay [1], the pIC50 is 6.00 and the “Resistance of EcS83L mutant enzyme in supercoiling inhibition” value is recorded as “improved activity toward the EcS83L mutant enzyme compared to the wt”. Moreover, the pIC50 in assay [2] is 5.59.
The corresponding values for `Cn1cc(-c2ccc(NC(=O)Cc3ccc(Cl)cc3)cc2)n2ccnc2c1=O` [b2] are 4.96, “less active against EcS83L” and 5.28.
For the molecule `N[C@H]1CCN(c2cc3c(cc2F)n2ccnc2c(=O)n3C2CC2)C1` [t1], the negative-log IC50 (pIC50) in assay [1] is 5.43; in assay [3] it was 6.30; in assay [5] it was 5.03; in assay [2], 6.30. Further, in assay [1] (EcS83L vs wild-type), the “Increase in supercoiling IC50 with EcS83L mutant compared to wt” value is about 7 fold. Besides, in assay [4], the “Level of double-stranded cleavage induced” value was “comparable to those obtained with ciprofloxacin”. Moreover, the “Resealing of stabilized cleavage by EDTA” value in assay [6] is on record as “slower”. In addition, the “Effect of ATP on rate of appearance of linear DNA (cleavage)” value in assay [7] was “greatly stimulated”. Besides, the “Antibacterial activity ranking on ΔTolC E. coli” value in the assay on ΔTolC E. coli is “most active tricyclic IPY”.
In the case of `N[C@H]1CCN(c2cc3c(cc2F)n2ncnc2c(=O)n3C2CC2)C1` [t2], the pIC50 was 5.02 in assay [1], 5.77 in assay [3], 4.70 to 5.40 in assay [5] and 5.77 in assay [2]. In assay [1], the “Resistance of EcS83L mutant enzyme in supercoiling inhibition” value was “partial resistance”. Moreover, the “Resistance of EcD87A mutant enzyme in supercoiling inhibition” value in assay [3] (EcD87A compared to wt) was “low to no resistance”. Besides, the “Resistance of EcD82N mutant enzyme in supercoiling inhibition” value in assay [5] (EcD82N compared to wt) is “high resistance”.

What is called pIC50 is −log10 of the IC50, conventionally taken in molar units.

The values above are taken from article PMC5934680, “A new class of antibacterials, the imidazopyrazinones, reveal structural transitions involved in DNA gyrase poisoning and mechanisms of resistance” (Nucleic Acids Research, 2018).
